The target of assay [1] is 5-hydroxytryptamine receptor 1B (Homo sapiens, UniProt P28222). Nature of the assay: PDSP Secondary Binding target: HTR1B - Compounds are tested at 10 uM concentration, plate are incubated at room temperature in the dark for 90 minutes. Reaction are stopped by vacuum filtration onto 0.3% polyethyleneimine soaked filter mats using Filtermate harvester. Scintillation cocktail is then melted onto microwave-dried filters on a hot plate and the radio activity is counted in Microbia counter.

In assay [2] the target is 5-hydroxytryptamine receptor 5A (Homo sapiens, UniProt P47898). Nature of the assay: PDSP Secondary Binding target: HTR5A - Compounds are tested at 10 uM concentration, plate are incubated at room temperature in the dark for 90 minutes. Reaction are stopped by vacuum filtration onto 0.3% polyethyleneimine soaked filter mats using Filtermate harvester. Scintillation cocktail is then melted onto microwave-dried filters on a hot plate and the radio activity is counted in Microbia counter.
Chain of 5-hydroxytryptamine receptor 5A (P47898 whole entry): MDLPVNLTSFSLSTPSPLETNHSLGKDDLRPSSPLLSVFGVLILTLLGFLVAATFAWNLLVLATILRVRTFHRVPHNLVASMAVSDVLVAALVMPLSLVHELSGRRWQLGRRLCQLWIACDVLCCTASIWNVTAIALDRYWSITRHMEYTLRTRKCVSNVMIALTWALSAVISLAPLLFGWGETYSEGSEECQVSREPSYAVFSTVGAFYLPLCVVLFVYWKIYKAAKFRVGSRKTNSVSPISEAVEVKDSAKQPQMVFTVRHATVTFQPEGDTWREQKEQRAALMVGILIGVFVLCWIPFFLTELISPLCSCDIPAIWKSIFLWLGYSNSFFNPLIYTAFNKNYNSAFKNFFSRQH

Assay [3] addresses 5-hydroxytryptamine receptor 7 (Homo sapiens, UniProt P34969). Nature of the assay: PDSP Secondary Binding target: HTR7 - Compounds are tested at 10 uM concentration, plate are incubated at room temperature in the dark for 90 minutes. Reaction are stopped by vacuum filtration onto 0.3% polyethyleneimine soaked filter mats using Filtermate harvester. Scintillation cocktail is then melted onto microwave-dried filters on a hot plate and the radio activity is counted in Microbia counter.

Assay [4] deals with Sodium-dependent noradrenaline transporter (Homo sapiens, UniProt P23975). Nature of the assay: PDSP Secondary Binding target: SLC6A2 - Compounds are tested at 10 uM concentration, plate are incubated at room temperature in the dark for 90 minutes. Reaction are stopped by vacuum filtration onto 0.3% polyethyleneimine soaked filter mats using Filtermate harvester. Scintillation cocktail is then melted onto microwave-dried filters on a hot plate and the radio activity is counted in Microbia counter.
Chain of Sodium-dependent noradrenaline transporter (P23975 whole entry): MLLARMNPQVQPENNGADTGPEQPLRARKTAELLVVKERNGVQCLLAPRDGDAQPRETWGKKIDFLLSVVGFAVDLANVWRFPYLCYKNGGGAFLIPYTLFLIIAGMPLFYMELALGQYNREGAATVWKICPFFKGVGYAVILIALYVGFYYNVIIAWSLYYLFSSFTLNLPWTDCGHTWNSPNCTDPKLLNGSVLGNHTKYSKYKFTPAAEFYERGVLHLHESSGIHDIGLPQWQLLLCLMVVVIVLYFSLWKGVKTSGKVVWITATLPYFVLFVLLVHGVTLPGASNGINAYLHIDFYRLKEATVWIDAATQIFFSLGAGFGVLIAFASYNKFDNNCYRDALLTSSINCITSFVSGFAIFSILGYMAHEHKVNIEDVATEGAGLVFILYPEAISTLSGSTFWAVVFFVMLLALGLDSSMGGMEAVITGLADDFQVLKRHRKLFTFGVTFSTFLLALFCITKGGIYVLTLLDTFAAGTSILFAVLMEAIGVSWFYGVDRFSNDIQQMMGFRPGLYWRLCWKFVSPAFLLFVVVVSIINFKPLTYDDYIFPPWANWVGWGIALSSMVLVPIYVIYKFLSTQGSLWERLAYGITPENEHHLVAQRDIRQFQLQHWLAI

For assay [5], the target named is Sodium-dependent dopamine transporter (Homo sapiens, UniProt Q01959). Nature of the assay: PDSP Secondary Binding target: SLC6A3 - Compounds are tested at 10 uM concentration, plate are incubated at room temperature in the dark for 90 minutes. Reaction are stopped by vacuum filtration onto 0.3% polyethyleneimine soaked filter mats using Filtermate harvester. Scintillation cocktail is then melted onto microwave-dried filters on a hot plate and the radio activity is counted in Microbia counter.
Chain of Sodium-dependent dopamine transporter (Q01959 whole entry): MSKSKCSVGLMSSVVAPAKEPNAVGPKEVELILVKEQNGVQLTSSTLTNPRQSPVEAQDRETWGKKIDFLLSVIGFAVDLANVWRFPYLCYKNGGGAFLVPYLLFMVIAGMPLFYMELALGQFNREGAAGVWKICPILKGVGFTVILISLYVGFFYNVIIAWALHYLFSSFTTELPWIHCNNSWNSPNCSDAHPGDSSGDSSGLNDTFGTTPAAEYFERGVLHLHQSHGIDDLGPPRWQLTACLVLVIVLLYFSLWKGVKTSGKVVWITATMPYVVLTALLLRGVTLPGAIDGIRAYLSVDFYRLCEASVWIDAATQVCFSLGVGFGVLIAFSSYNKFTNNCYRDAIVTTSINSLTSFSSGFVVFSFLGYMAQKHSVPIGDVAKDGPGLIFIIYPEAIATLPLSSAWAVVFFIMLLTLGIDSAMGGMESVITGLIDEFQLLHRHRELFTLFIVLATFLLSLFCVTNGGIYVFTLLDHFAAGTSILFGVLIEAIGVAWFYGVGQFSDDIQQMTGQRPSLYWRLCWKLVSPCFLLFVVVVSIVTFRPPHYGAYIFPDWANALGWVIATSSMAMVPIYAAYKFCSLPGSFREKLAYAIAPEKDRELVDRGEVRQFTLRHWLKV

In assay [6] the target is Sigma intracellular receptor 2 (Homo sapiens, UniProt Q5BJF2). Nature of the assay: PDSP Secondary Binding target: TMEM97 - Compounds are tested at 10 uM concentration, plate are incubated at room temperature in the dark for 90 minutes. Reaction are stopped by vacuum filtration onto 0.3% polyethyleneimine soaked filter mats using Filtermate harvester. Scintillation cocktail is then melted onto microwave-dried filters on a hot plate and the radio activity is counted in Microbia counter.
Chain of Sigma intracellular receptor 2 (Q5BJF2 whole entry): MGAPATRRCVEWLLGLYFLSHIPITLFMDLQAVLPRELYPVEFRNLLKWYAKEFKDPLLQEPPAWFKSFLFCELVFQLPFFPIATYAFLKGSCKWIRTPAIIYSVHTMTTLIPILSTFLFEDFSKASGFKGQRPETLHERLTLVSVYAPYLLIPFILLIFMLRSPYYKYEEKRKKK

Assay [7] concerns the target Sigma non-opioid intracellular receptor 1 (Homo sapiens, UniProt Q99720). Nature of the assay: PDSP Secondary Binding target: SIGMAR1 - Compounds are tested at 10 uM concentration, plate are incubated at room temperature in the dark for 90 minutes. Reaction are stopped by vacuum filtration onto 0.3% polyethyleneimine soaked filter mats using Filtermate harvester. Scintillation cocktail is then melted onto microwave-dried filters on a hot plate and the radio activity is counted in Microbia counter.

For the next assay, the target named is Mu-type opioid receptor (Homo sapiens, UniProt P35372). Nature of the assay: PDSP Secondary Binding target: OPRM1 - Compounds are tested at 10 uM concentration, plate are incubated at room temperature in the dark for 90 minutes. Reaction are stopped by vacuum filtration onto 0.3% polyethyleneimine soaked filter mats using Filtermate harvester. Scintillation cocktail is then melted onto microwave-dried filters on a hot plate and the radio activity is counted in Microbia counter.
Chain of Mu-type opioid receptor (P35372 whole entry): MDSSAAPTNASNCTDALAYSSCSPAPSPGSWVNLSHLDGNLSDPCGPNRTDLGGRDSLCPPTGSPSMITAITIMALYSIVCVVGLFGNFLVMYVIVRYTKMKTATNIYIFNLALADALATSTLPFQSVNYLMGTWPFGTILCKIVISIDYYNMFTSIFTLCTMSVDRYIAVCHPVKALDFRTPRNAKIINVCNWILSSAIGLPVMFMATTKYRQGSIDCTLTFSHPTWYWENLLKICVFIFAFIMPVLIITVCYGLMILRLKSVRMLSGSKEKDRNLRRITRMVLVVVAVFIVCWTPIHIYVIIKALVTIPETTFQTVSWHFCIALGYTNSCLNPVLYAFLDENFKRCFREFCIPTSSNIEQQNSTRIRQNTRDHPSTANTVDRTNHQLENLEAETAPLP

Assay [8] has as its target Sodium-dependent serotonin transporter (Homo sapiens, UniProt P31645). Nature of the assay: PDSP Secondary Binding target: SLC6A4 - Compounds are tested at 10 uM concentration, plate are incubated at room temperature in the dark for 90 minutes. Reaction are stopped by vacuum filtration onto 0.3% polyethyleneimine soaked filter mats using Filtermate harvester. Scintillation cocktail is then melted onto microwave-dried filters on a hot plate and the radio activity is counted in Microbia counter.

Assay [9] addresses T1, Alpha-2B adrenergic receptor (Homo sapiens, UniProt P18089).
T1 sequence (P18089 whole entry): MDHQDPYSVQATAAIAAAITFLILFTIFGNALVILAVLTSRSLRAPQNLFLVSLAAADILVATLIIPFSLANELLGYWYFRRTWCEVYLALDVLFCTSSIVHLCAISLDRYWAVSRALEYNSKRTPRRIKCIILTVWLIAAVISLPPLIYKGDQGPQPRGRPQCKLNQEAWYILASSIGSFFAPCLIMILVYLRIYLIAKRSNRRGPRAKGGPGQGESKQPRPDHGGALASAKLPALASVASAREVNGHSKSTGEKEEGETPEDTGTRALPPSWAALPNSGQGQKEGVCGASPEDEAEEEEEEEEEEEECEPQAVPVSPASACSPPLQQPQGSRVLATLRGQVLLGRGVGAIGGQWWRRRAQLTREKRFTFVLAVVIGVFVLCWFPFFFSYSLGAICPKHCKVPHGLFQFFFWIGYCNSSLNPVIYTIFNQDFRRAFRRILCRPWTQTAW
Nature of the assay: PDSP Secondary Binding target: ADRA2B - Compounds are tested at 10 uM concentration, plate are incubated at room temperature in the dark for 90 minutes. Reaction are stopped by vacuum filtration onto 0.3% polyethyleneimine soaked filter mats using Filtermate harvester. Scintillation cocktail is then melted onto microwave-dried filters on a hot plate and the radio activity is counted in Microbia counter.

Assay [10] concerns the target T2, Alpha-2C adrenergic receptor (Homo sapiens, UniProt P18825).
T2 sequence (P18825 whole entry): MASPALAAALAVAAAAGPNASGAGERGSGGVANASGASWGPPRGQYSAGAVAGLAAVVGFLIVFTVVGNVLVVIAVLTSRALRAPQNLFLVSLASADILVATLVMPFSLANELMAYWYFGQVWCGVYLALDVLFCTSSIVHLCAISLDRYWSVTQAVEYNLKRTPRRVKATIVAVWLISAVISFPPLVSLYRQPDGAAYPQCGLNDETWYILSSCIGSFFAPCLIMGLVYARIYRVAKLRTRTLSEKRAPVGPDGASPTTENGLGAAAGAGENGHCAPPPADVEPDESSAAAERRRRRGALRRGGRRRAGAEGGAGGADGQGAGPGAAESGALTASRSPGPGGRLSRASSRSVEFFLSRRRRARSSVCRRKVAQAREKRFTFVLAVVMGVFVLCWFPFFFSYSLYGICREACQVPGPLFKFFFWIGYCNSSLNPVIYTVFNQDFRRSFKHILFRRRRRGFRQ
Nature of the assay: PDSP Secondary Binding target: ADRA2C - Compounds are tested at 10 uM concentration, plate are incubated at room temperature in the dark for 90 minutes. Reaction are stopped by vacuum filtration onto 0.3% polyethyleneimine soaked filter mats using Filtermate harvester. Scintillation cocktail is then melted onto microwave-dried filters on a hot plate and the radio activity is counted in Microbia counter.

For the next assay, the target named is Histamine H1 receptor (Homo sapiens, UniProt P35367). Nature of the assay: PDSP Secondary Binding target: HRH1 - Compounds are tested at 10 uM concentration, plate are incubated at room temperature in the dark for 90 minutes. Reaction are stopped by vacuum filtration onto 0.3% polyethyleneimine soaked filter mats using Filtermate harvester. Scintillation cocktail is then melted onto microwave-dried filters on a hot plate and the radio activity is counted in Microbia counter.
Chain of Histamine H1 receptor (P35367 whole entry): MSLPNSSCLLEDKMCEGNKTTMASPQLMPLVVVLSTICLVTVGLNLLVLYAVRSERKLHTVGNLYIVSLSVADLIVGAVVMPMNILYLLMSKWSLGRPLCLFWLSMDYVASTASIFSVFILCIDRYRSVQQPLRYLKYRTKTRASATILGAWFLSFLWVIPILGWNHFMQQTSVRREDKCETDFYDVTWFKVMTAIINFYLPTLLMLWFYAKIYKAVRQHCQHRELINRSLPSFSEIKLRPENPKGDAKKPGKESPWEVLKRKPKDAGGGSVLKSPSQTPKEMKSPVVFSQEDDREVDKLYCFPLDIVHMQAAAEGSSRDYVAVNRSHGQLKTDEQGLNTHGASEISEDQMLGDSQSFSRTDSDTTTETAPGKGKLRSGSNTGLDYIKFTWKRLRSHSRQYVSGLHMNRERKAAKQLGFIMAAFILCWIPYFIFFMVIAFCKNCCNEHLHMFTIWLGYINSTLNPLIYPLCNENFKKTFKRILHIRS

The next assay concerns the target Translocator protein (Homo sapiens, UniProt P30536). Nature of the assay: PDSP Secondary Binding target: TSPO - Compounds are tested at 10 uM concentration, plate are incubated at room temperature in the dark for 90 minutes. Reaction are stopped by vacuum filtration onto 0.3% polyethyleneimine soaked filter mats using Filtermate harvester. Scintillation cocktail is then melted onto microwave-dried filters on a hot plate and the radio activity is counted in Microbia counter.

The target of the next assay is D(3) dopamine receptor (Homo sapiens, UniProt P35462). Nature of the assay: PDSP Secondary Binding target: DRD3 - Compounds are tested at 10 uM concentration, plate are incubated at room temperature in the dark for 90 minutes. Reaction are stopped by vacuum filtration onto 0.3% polyethyleneimine soaked filter mats using Filtermate harvester. Scintillation cocktail is then melted onto microwave-dried filters on a hot plate and the radio activity is counted in Microbia counter.
Chain of D(3) dopamine receptor (P35462 whole entry): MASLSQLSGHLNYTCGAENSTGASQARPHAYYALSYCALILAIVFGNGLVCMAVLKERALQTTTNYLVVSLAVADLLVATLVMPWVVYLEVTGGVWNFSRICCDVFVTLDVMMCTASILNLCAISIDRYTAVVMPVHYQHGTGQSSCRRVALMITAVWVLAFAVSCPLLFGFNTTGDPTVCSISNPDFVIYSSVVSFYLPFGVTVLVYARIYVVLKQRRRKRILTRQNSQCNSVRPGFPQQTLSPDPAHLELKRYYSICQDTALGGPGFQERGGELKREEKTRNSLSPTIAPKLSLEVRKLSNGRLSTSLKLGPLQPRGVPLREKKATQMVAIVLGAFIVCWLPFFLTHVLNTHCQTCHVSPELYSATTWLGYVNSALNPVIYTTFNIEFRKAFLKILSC

A further assay deals with T3, D(4) dopamine receptor (Homo sapiens, UniProt P21917).
T3 sequence (P21917 whole entry): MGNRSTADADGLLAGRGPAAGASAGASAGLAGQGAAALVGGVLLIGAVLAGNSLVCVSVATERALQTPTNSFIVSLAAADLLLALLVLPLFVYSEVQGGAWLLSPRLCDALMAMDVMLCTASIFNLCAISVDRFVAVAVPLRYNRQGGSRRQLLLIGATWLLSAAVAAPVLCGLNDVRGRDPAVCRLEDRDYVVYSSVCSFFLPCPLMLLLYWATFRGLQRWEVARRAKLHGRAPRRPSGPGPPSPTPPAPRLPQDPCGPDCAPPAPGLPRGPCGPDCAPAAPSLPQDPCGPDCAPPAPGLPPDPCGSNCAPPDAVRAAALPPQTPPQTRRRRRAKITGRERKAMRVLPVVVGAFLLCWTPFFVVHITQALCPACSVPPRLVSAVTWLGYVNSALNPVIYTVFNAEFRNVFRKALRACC
Nature of the assay: PDSP Secondary Binding target: DRD4 - Compounds are tested at 10 uM concentration, plate are incubated at room temperature in the dark for 90 minutes. Reaction are stopped by vacuum filtration onto 0.3% polyethyleneimine soaked filter mats using Filtermate harvester. Scintillation cocktail is then melted onto microwave-dried filters on a hot plate and the radio activity is counted in Microbia counter.

In another assay the target is D(2) dopamine receptor (Homo sapiens, UniProt P14416). Nature of the assay: PDSP Secondary Binding target: DRD2 - Compounds are tested at 10 uM concentration, plate are incubated at room temperature in the dark for 90 minutes. Reaction are stopped by vacuum filtration onto 0.3% polyethyleneimine soaked filter mats using Filtermate harvester. Scintillation cocktail is then melted onto microwave-dried filters on a hot plate and the radio activity is counted in Microbia counter.
Chain of D(2) dopamine receptor (P14416 whole entry): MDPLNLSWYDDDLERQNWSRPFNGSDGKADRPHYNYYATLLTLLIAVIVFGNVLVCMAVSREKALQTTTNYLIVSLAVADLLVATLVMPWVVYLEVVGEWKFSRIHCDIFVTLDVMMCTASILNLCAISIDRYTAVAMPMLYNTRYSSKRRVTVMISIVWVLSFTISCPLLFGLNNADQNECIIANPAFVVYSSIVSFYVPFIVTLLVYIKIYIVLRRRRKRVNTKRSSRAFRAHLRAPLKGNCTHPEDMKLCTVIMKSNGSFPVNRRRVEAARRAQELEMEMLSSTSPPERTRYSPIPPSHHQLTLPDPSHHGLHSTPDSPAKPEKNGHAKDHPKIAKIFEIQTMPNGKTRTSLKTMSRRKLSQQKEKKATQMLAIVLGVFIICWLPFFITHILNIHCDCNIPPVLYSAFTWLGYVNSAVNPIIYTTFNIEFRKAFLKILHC

The target in assay [11] is T4, Muscarinic acetylcholine receptor M5 (Homo sapiens, UniProt P08912).
T4 sequence (P08912 whole entry): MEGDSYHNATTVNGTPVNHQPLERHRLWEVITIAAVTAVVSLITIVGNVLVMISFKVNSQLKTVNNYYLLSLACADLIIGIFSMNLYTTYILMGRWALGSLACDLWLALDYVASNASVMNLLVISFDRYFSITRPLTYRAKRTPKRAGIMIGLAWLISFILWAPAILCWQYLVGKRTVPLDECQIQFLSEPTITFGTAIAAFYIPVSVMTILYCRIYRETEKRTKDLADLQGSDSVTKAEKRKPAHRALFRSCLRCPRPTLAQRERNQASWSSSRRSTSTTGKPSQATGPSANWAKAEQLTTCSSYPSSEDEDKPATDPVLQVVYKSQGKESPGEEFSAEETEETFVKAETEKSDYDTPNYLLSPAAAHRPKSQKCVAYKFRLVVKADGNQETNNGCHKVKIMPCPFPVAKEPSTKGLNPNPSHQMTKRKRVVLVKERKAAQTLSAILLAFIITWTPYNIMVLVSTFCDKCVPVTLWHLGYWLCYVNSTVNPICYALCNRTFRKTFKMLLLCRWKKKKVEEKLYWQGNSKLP
Nature of the assay: PDSP Secondary Binding target: CHRM5 - Compounds are tested at 10 uM concentration, plate are incubated at room temperature in the dark for 90 minutes. Reaction are stopped by vacuum filtration onto 0.3% polyethyleneimine soaked filter mats using Filtermate harvester. Scintillation cocktail is then melted onto microwave-dried filters on a hot plate and the radio activity is counted in Microbia counter.

The target of assay [12] is T5, Alpha-2A adrenergic receptor (Homo sapiens, UniProt P08913).
T5 sequence (P08913 whole entry): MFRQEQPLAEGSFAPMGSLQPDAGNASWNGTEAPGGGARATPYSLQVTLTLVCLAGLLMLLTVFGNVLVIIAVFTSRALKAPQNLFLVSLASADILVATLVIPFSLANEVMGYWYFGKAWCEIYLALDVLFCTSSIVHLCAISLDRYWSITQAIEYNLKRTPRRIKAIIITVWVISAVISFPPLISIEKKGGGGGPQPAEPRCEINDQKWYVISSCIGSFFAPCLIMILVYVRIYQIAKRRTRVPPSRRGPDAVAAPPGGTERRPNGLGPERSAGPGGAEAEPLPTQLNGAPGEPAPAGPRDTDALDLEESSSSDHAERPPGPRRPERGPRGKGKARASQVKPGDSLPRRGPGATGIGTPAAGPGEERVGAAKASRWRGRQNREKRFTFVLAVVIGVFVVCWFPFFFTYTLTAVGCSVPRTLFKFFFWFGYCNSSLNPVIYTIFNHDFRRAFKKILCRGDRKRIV
Nature of the assay: PDSP Secondary Binding target: ADRA2A - Compounds are tested at 10 uM concentration, plate are incubated at room temperature in the dark for 90 minutes. Reaction are stopped by vacuum filtration onto 0.3% polyethyleneimine soaked filter mats using Filtermate harvester. Scintillation cocktail is then melted onto microwave-dried filters on a hot plate and the radio activity is counted in Microbia counter.

Each structure is given as a SMILES string. pKi: −log10 of the molar value. Where a name gives a salt, the structure may show the parent alone.

Chain of Translocator protein (P30536 whole entry): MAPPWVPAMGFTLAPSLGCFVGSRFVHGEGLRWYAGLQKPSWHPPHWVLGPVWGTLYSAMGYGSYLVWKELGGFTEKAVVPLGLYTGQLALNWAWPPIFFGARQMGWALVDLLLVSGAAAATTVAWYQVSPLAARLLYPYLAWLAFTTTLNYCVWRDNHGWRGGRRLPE
Chain of Sodium-dependent serotonin transporter (P31645 whole entry): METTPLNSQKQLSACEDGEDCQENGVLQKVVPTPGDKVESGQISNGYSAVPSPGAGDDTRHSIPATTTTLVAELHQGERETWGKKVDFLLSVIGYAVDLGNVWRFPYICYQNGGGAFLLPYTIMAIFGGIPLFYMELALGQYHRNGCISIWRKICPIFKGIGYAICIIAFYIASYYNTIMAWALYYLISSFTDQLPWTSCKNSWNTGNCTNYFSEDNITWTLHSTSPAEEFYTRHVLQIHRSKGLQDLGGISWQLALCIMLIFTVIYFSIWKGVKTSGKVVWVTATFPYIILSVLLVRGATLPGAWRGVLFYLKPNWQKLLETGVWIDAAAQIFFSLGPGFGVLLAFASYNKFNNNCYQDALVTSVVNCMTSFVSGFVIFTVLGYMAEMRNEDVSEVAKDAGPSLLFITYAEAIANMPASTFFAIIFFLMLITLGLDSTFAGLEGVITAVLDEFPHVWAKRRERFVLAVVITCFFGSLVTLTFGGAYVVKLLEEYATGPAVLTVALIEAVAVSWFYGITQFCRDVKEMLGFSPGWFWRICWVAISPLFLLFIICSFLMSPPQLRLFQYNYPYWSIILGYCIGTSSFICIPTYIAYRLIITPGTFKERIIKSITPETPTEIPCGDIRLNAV
Chain of 5-hydroxytryptamine receptor 7 (P34969 whole entry): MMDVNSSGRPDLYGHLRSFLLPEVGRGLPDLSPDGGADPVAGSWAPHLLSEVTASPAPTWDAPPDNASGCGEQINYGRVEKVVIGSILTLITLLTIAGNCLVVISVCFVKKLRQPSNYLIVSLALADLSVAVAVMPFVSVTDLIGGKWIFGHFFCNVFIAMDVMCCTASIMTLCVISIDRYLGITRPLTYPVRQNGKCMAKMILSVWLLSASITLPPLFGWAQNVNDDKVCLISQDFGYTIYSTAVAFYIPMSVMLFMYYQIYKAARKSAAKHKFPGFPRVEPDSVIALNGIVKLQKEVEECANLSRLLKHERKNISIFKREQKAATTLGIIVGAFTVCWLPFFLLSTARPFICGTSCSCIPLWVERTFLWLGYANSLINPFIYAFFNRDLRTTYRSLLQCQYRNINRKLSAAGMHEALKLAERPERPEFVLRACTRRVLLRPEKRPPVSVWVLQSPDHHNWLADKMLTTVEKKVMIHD

One may read the pKi as −log10 of the Ki, conventionally taken in molar units. Lower therefore signals a large Ki. Turning to `COc1ccccc1N1CCN(CCCCNC(=O)c2ccc3ccccc3c2)CC1`, the pKi was 6.78 in assay [1]; 6.12 in assay [2]; 7.53 in assay [3]; 5.78 in assay [4]; 6.13 in assay [5]; 6.95 in assay [6]. Also, the pKi in assay [7] is 6.59; on Mu-type opioid receptor, 6.60; in [8] it was 6.52; in assay [9] it was 6.88; in assay [10], 7.08; at Histamine H1 receptor it was 6.90. This compound gave a pKi at Translocator protein of 5.93.

With `CCCNS(=O)(=O)Nc1ncnc(OCCOc2ncc(Br)cn2)c1-c1ccc(Br)cc1`, the pKi was 5.32 in [4], under 5.00 in [8], 6.00 on D(3) dopamine receptor and 5.67 on Translocator protein.

In the case of `O=c1ccn([C@@H]2O[C@H](COP(=O)(O)OP(=O)(O)OP(=O)(O)O)[C@@H](O)[C@H]2O)c(=O)[nH]1`, the pKi on D(4) dopamine receptor was 5.06; on Translocator protein it was 5.32; on D(2) dopamine receptor, 5.41.

Turning to `OC1(c2ccc(Cl)cc2)CCN(Cc2c[nH]c3ccccc23)CC1`, the pKi was 6.24 in assay [11]; 5.83 in assay [4]; 5.85 in assay [5]; 6.57 in [6]; 6.24 on D(4) dopamine receptor; 7.29 on Mu-type opioid receptor. The pKi in assay [8] was 7.53; in assay [12], 5.41; in assay [9], 6.22; at D(3) dopamine receptor it was 6.69.

Consider `CC(C)(C(=O)O)c1ccc(C(O)CCCN2CCC(C(O)(c3ccccc3)c3ccccc3)CC2)cc1` (configuration not stated) [FEXOFENADINE HYDROCHLORIDE], for which the pKi on D(2) dopamine receptor is 5.06.

As to `CCCCCNC(=O)NS(=O)(=O)c1cc([N+](=O)[O-])ccc1NC1CCCCC1`, the values for the pKi (in [4]; in assay [8]; on D(3) dopamine receptor) were 5.16, 5.11 and 5.59, respectively.

For the compound `O=C(O)c1n[nH]c2c1C[C@H]1C[C@@H]21`, the negative logarithm of the Ki (pKi) was under 5.00 in [2], under 5.00 in assay [4] and 5.61 in assay [8].

(Values after ChEMBL document CHEMBL5442175, “EUbOPEN Chemogenomics Library - PDSP Secondary Binding” (2024).)
